Where two headings read alike, the source gives them in different places.
Tests used:
[1] = system: influenza virus A/H3N2, strain Hong Kong 68; assay: Antiviral activity against influenza virus A/H3N2, strain Hong Kong 68 (crystal violet uptake assay in MDCK cells); type: cell-based; conditions: for Active: experimental class, active if IC50 < 30 μM
Description: The synthesized compounds were tested for antiviral activity against the influenza virus A/H3N2, strain Hong Kong 68.
In order to identify new potential antiviral drugs, small amounts of extracts or compounds have to be examined for cytotoxicity and antiviral activity in primary screening using a rapid, easy, inexpensive and highly standardized test system. The cytotoxic and the antiviral effects were quantified using a crystal violet uptake assay allowing automated handling of large numbers of candidate agents. […] Madin-Darby Kanine Kidney Cells (MDCK) cells were seeded at 2 × 10^4 cells per well in 96-well flat-bottomed microtiter plates (Falcon 3075). The cytotoxicity of the test compounds was determined on 2-day-old confluent MDCK cell monolayers grown in the internal 60 wells (5% CO2, 37 °C). After removal of the growth medium, two-fold dilutions of the compounds in 100 µL test medium were added and incubated at 37 °C in a 5% CO2 atmosphere for 72 h. Cells in six wells without compound treatment served as basic controls. The Dynex Immuno Assay System (DIAS, Guernsey, UK) developed for automated ELISA techniques was applied to wash gently, stain, measure and analyze the viability of the cell monolayers in cytotoxic, as well as antiviral assays. The staining procedure undertaken with crystal violet was based on the principles described by Nain et al. for the determination of the cytotoxic activity of TNF-α [20]. At first, the supernatant was aspirated and the cell monolayers were washed three times with […] physiological sodium chloride solution to remove dead cells. Secondly, the cells were fixed and stained in one step with 50 µL of 0.03% crystal violet (w/v) in 20% methanol for 10 min. […] Then the optical density of individual wells was quantified spectrophotometrically at 540/630 nm and analyzed with the DIAS. Cell viability was evaluated as the percentage of the mean value of optical density, resulting from the six cell controls, which was set 100%. The 50% cytotoxic concentrations (CC50) were calculated from the mean dose–response curves of three assays each with two parallels.
To exclude non-specific antiviral activities of test compounds, their cytotoxic effects have to be determined not only on confluent cell monolayers but also on proliferating cell cultures in the primary antiviral screening. The cytotoxicity and the growth inhibition of compounds were quantified using an automated crystal violet staining procedure and the electronic cell analyzer system CASY 1, respectively, on day 3 after compound application. The 50% cytotoxic and growth inhibition concentrations were calculated from the mean dose–response curve (3.9 through 1000 µg mL^−1; dilution factor 2) of three separate experiments each with two parallels in the indicated cell lines.

in vitro [2] = conditions: dog
MDCK cells = conditions: for HNTC (μM) MDCK Cells: high-nontoxic concentration; for CC50: read-out: CC50 (μM) MDCK Cells, 50% cytotoxic concentration, confluent MDCK monolayers, 72 h
in vitro [3] = type: in vitro ADME; conditions: human, plasma
Description: The separation of glycyl-rimantadine (4b) and Ala-rimantadine (4a) (internal standard, IS) was performed on an ultra-high-performance liquid chromatography (UHPLC) system (Bruker Daltonics, Germany), utilizing an RP Kinetex C18 column 100 mm × 2.1 mm, 2.6 μm, with a proguard column 2.1 mm (Phenomenex, USA). The mobile phase was composed of formic acid 0.1% in water (A) and acetonitrile (B). Gradient elution was chosen for the analysis, at a constant flow rate of 0.25 mL min^−1 and the following gradient profile: initial phase (B) concentration of 5% until 0.3 min, then increased to 80% within 1.2 min, kept constant for 1 min at 80% and then reduced to 5% at 2.6 min, until the end of the run at 4 min. The temperature in the autosampler and the column oven was maintained at 15 °C and 40 °C, respectively. The sample injection volume was set to 5 μL.
The EVOQ Elite ER (Bruker Daltonics, Germany) triple quadrupole mass spectrometer was operated in positive ionization electrospray mode (ESI) in multiple reaction monitoring (MRM) for the detection of glycyl-rimantadine (4b) and IS. The optimal MRM transitions for monitoring the analytes were determined and set as follows: m/z 237.1 → 163.2, 237.1 → 75.5 and 237.1 → 81.4 for glycyl-rimantadine and 251.1 → 163.2, 251.1 → 89.4 and 251.1 → 180.2 for the IS. The optimum ESI parameters were determined and set as follows: spray voltage at 4500 V; heated probe gas flow at 50 units; heated probe temperature at 150 °C; cone gas flow at 20 units; cone temperature at 300 °C and nebulizer gas flow at 50 units. The control of the LC and the MS, as well as the data acquisition, was performed using the MSWS software, version 8.2.1 (Bruker Datonics, Germany). […]
The in vitro plasma stability of glycyl-rimantadine (4b) was conducted by LC–MS/MS. […] The glycyl-rimantadine (4b) concentration was calculated via the standard calibration curve that was designed by plotting the area of the conjugate versus the IS area against the nominal concentration of the calibration standards. […]

[4] = set-up: method as in doi:10.1177/095632029200300305, PMID 9706043, PMID 19116869; conditions: orally introduced; cited from earlier work
[5] = Influenza A virus, H3N2, MDCK, read-out: IC50 (μM) Against A/Hong Kong/68
[6] = MDCK, Table 4, against A/Hong Kong/68, QSAR numbering, read-out: IC50
[7] = influenza A/H3N2 Hong Kong/68, read-out: IC50 (μM) Against A/Hong Kong/68
[8] = Table 4, against A/Hong Kong/68, QSAR numbering, read-out: IC50

Compound	IC50 [1, 5]	Active [1]	CC50 (in vitro [2])	HNTC (μM) MDCK Cells (MDCK cells)	other results
NC12CC3CC(CC(C3)C1)C2 [Amantadine, reference compound]	0.39 µM	Yes (Active compound only if IC50 < 30 μM)	> 100 µM	–	IC50 [1, 6]: 0.39 µM
CC(N)C(=O)NC(C)C12CC3CC(CC(C3)C1)C2 (centres unmarked) [Compound 4a, Ala-Rimantadine]	1.53 µM	–	> 100 µM	14.65 µM	–
CC(NC(=O)CN)C12CC3CC(CC(C3)C1)C2 (centres unmarked) [Compound 4b, glycyl-rimantadine]	0.11 µM	–	> 100 µM	13.89 µM	remaining at 6 h, 1.58 µg/mL (in vitro [3]): 97.5%; remaining at 12 h, 1.58 µg/mL (in vitro [3]): ~91%; remaining at 24 h, 1.58 µg/mL (in vitro [3]): 83.7%
CCC(C)C(N)C(=O)NC(C)C12CC3CC(CC(C3)C1)C2 (centres unmarked) [Compound 4c, Ile-Rim]	–	–	58.4 µM	5.33 µM	–
CC(C)CC(N)C(=O)NC(C)C12CC3CC(CC(C3)C1)C2 (centres unmarked) [Compound 4d, Leu-Rim]	0.75 µM	–	> 100 µM	11.66 µM	–
CC(NC(=O)C(N)Cc1ccccc1)C12CC3CC(CC(C3)C1)C2 (centres unmarked) [Compound 4e, Phe-Rim]	–	–	21.9 µM	4.75 µM	–
CC(NC(=O)[C@H](N)Cc1ccc(F)cc1)C12CC3CC(CC(C3)C1)C2 (stereo partly drawn) [Compound 4f, (4-F)-D-Phe-Rim]	–	–	19.9 µM	6.23 µM	–
CC(NC(=O)C(N)Cc1ccc(F)cc1)C12CC3CC(CC(C3)C1)C2 (centres unmarked) [Compound 4g, (4-F)-Phe-Rim]	–	–	15.5 µM	4.37 µM	–
CC(C)C(N)C(=O)NC(C)C12CC3CC(CC(C3)C1)C2 (centres unmarked) [Compound 4h, Val-Rim]	–	–	70.3 µM	10.2 µM	–
CC(NC(=O)CCN)C12CC3CC(CC(C3)C1)C2 (stereo not drawn) [Compound 4i, β-Ala-Rimantadine]	15.7 µM	–	> 100 µM	20.78 µM	–
CC(NC(=O)C(N)Cc1ccc(O)cc1)C12CC3CC(CC(C3)C1)C2 (centres unmarked) [Compound 4j, Tyr-Rimantadine]	0.52 µM	–	> 100 µM	9.97 µM	–
CC(N)C(=O)NC12CC3CC(CC(C3)C1)C2 (centres unmarked) [Compound 5a, Ala-Amantadine]	1.41 µM	Yes (Active compound only if IC50 < 30 μM)	> 100 µM	>100 µM	IC50 [1, 6]: 1.41 µM
NC(Cc1ccccc1)C(=O)NC12CC3CC(CC(C3)C1)C2 (centres unmarked) [Compound 5e, phenylalanyl-amantadine]	0.75 µM	Yes (Active compound only if IC50 < 30 μM)	89.4 µM	15.1 µM	IC50 [1, 6]: 0.75 µM
NC(Cc1ccc(F)cc1)C(=O)NC12CC3CC(CC(C3)C1)C2 (centres unmarked) [Compound 5g, (4-F)-phenylalanyl-amantadine]	0.81 µM	Yes (Active compound only if IC50 < 30 μM)	83.6 µM	15.35 µM	IC50 [1, 6]: 0.81 µM
CC(C)C(N)C(=O)NC12CC3CC(CC(C3)C1)C2 (centres unmarked) [Compound 5h, Val-Amantadine]	1.32 µM	Yes (Active compound only if IC50 < 30 μM)	> 100 µM	>100 µM	IC50 [1, 6]: 1.32 µM
CC(NC(=O)[C@H](C)NC(=N)N)C12CC3CC(CC(C3)C1)C2 (stereo partly drawn) [Compound 6a, Gua-Ala-Rim]	–	–	–	>100 µM	IC50 [1, 7]: 41.9 µM; CC50 (MDCK cells): > 100 µM
CC(NC(=O)CCNC(=N)N)C12CC3CC(CC(C3)C1)C2 (stereo not drawn) [Compound 6i, Gua-β-Ala-Rim]	–	–	–	>100 µM	CC50 (MDCK cells): > 100 µM
CC(NC(=O)[C@H](Cc1ccc(O)cc1)NC(=N)N)C12CC3CC(CC(C3)C1)C2 (stereo partly drawn) [Compound 6j, Gua-Tyr-Rim]	–	–	–	36.69 µM	IC50 [1, 7]: 8.19 µM; CC50 (MDCK cells): > 100 µM
C[C@H](NC(=N)N)C(=O)NC12CC3CC(CC(C3)C1)C2 [Compound 7a, Gua-Ala-Am]	–	Yes (Active compound only if IC50 < 30 μM)	–	>100 µM	IC50 [1, 8]: 18.4 µM; IC50 [1, 7]: 18.4 µM; CC50 (MDCK cells): > 100 µM
CC(C)[C@H](NC(=N)N)C(=O)NC12CC3CC(CC(C3)C1)C2 [Compound 7h, Gua-Val-Am]	–	Yes (Active compound only if IC50 < 30 μM)	–	>100 µM	IC50 [1, 8]: 17.1 µM; IC50 [1, 7]: 17.1 µM; CC50 (MDCK cells): > 100 µM
CCOC(=O)C1=C[C@@H](OC(CC)CC)[C@H](NC(C)=O)[C@@H](N)C1 [Oseltamivir, reference compound]	0.002 µM	–	> 100 µM	>100 µM	–
CC(C)[C@H](N)C(=O)OCCOCn1cnc2c(=O)[nH]c(N)nc21 [Valacyclovir]	–	–	–	–	bioavailability, times higher than acyclovir [4]: 3–4 times

From paper PMC7504818, “Synthetic Analogues of Aminoadamantane as Influenza Viral Inhibitors—In Vitro, In Silico and QSAR Studies” (Molecules, 2020)
